24 compounds from patent US20250289826A1, “PLPRO PROTEIN INHIBITOR, AND PREPARATION METHOD AND APPLICATION THEREOF” (priority 2022, published 2025) can be followed below.

The structures appear in SMILES notation.

The target of the assay is PLpro (Severe acute respiratory syndrome coronavirus 2 (2019-nCoV) (SARS-CoV-2), UniProt P0DTD1). In words: Assay for PLpro inhibitory activity (Ub-AMC fluorescence; single point inhibition test and IC50 determination). The following applies: for IC50: fluorescence measured after 15 min of reaction; for inhibition at 1 µM: read-out: inhibition of PLpro (1 μM), 1 μM test compound, 100 nM PLpro, 10 μM Ub-AMC, 37° C. 30 min. In kind it is biochemical.

What is called IC50 is the concentration needed to halve the response being measured. A lower IC50 goes with higher potency. As a reminder, the inhibition is the share of the control response that was lost under treatment. Turning to `Cc1ccc(N2CC3CCC(C2)N3)cc1C(=O)NC1(c2cccc3cc(F)ccc23)CC1` [Example C1], the IC50 was found to be 83 ± 6.63 nM and the inhibition at 1 µM was 97.7%.
For the compound `Cc1ccc(N2CCNCC2)cc1C(=O)NC1(c2ccc(F)c3ccccc23)CC1` [Example C2], the concentration for half-maximal inhibition (IC50) came to 98 ± 12.1 nM and the inhibition at 1 µM turned out to be 96.4%.
As to `Cc1ccc(N2CC3CCC(C2)N3)cc1C(=O)NC1(c2ccc(F)c3ccccc23)CC1` [Example C3], the concentration for half-maximal inhibition (IC50) amounted to 40.1 ± 3.01 nM and the inhibition at 1 µM was 96.2%.
For `Cc1ccc(N2CC3CCC(C2)N3)cc1C(=O)NC1(c2cccc(-c3cccs3)c2)CC1` [Example C4], the inhibition at 1 µM was 73.4%.
On to `Cc1ccc(N2CC3CCC(C2)N3C)cc1C(=O)NC1(c2cccc(-c3cccs3)c2)CC1` [Example C5], for which half-maximal inhibition (IC50) required 104 ± 6.02 nM and the inhibition at 1 µM came to 79.5%.
For the compound `Cc1ccc(N2CCNCC2)cc1C(=O)NC1(c2cccc(-c3cccs3)c2)CC1` [Example C6], the inhibition at 1 µM is 56.5%.
As to `Cc1ccc(N2CC3CCC(C2)N3)cc1C(=O)NC1(c2cccc(C(C)(C)C)c2)CC1` [Example C7], the inhibition at 1 µM is 15%.
In the case of `Cc1ccc(N2CC3CCC(C2)N3C)cc1C(=O)NC1(c2cccc(C(C)(C)C)c2)CC1` [Example C8], the inhibition at 1 µM was 37.2%.
With `Cc1ccc(N2CC(N(C)C)C2)cc1C(=O)NC1(c2cccc3cc(F)ccc23)CC1` [Example C9], the IC50 was found to be 52.1 ± 4.18 nM and the inhibition at 1 µM stood at 98%.
Turning to `Cc1ccc(N2CC(N(C)C)C2)cc1C(=O)NC1(c2cccc3cc(F)c(F)cc23)CC1` [Example C10], the IC50 is 13 ± 2.76 nM and the inhibition at 1 µM was found to be 98.2%.
`Cc1ccc(N2CC(N(C)C)C2)cc1C(=O)NC1(c2ccc(Cl)c3ccccc23)CC1` [Example C11]: the IC50 was 83.1 ± 12.7 nM and the inhibition at 1 µM worked out at 96.8%.
Consider `COc1ccc(C2(NC(=O)c3cc(N4CC(N(C)C)C4)ccc3C)CC2)c2ccccc12` [Example C12], for which the concentration for half-maximal inhibition (IC50) turned out to be 18.6 ± 2.3 nM and the inhibition at 1 µM is 97.8%.
In the case of `Cc1ccc(N2CC(N(C)C)C2)cc1C(=O)NC1(c2ccc(Br)c3ccccc23)CC1` [Example C13], inhibition was half-maximal at 79.8 ± 6.04 nM (IC50) and the inhibition at 1 µM turned out to be 98.5%.
For `Cc1ccc(N2CC(N(C)C)C2)cc1C(=O)NC1(c2ccc(C)c3ccccc23)CC1` [Example C14], the IC50 came out at 205 ± 13.6 nM and the inhibition at 1 µM was found to be 95.1%.
Turning to `Cc1ccc(N2CC(N(C)C)C2)cc1C(=O)NC1(c2ccc(OC(F)F)c3ccccc23)CC1` [Example C15], the “inhibition of PLpro (1 μM)” value (1 μM test compound, 100 nM PLpro, 10 μM Ub-AMC, 37° C. 30 min) is recorded as 98.0%.
`Cc1ccc(N2CC(N(C)C)C2)cc1C(=O)NC1(c2ccc(F)c3ccccc23)CC1` [Example C16]: it took 56.4 ± 8.48 nM to reach half-maximal inhibition (IC50) and the inhibition at 1 µM is 89.4%.
The matching figures for `Cc1ccc(N2CC(N(C)C)C2)cc1C(=O)NC1(c2cccc3c(Cl)cccc23)CC1` [Example C17]: 18.7 ± 5.29 nM and 98.1%.
With `Cc1ccc(N2CC(N(C)C)C2)cc1C(=O)NC1(c2cccc3c(F)cccc23)CC1` [Example C18], the IC50 came out at 17.8 ± 1.94 nM and the inhibition at 1 µM came out at 97.6%.
On to `Cc1ccc(N2CC(N(C)C)C2)cc1C(=O)NC1(c2ccccc2)CC1` [Example C19], for which the inhibition at 1 µM was 4.9%.
For the compound `Cc1ccc(N2CC(N(C)C)C2)cc1C(=O)NC1(c2csc3ccccc23)CC1` [Example C20], the midpoint of inhibition, the IC50, lay at 76.5 ± 9.48 nM and the inhibition at 1 µM is 91.9%.
The like results for `Cc1ccc(N2CC(N(C)C)C2)cc1C(=O)NC1(c2cccc3c2CCCC3)CC1` [Example C21] were, in that order, 91.1 ± 8.22 nM and 90.4%.
As to `Cc1ccc(N2CC(N(C)C)C2)cc1C(=O)NC1(c2ccc(-c3ccccc3)cc2)CC1` [Example C22], the inhibition at 1 µM came out at 0%.
Turning to `Cc1ccc(N2CC(N(C)C)C2)cc1C(=O)NC1(c2cccc(-c3ccccc3)c2)CC1` [Example C23], the inhibition at 1 µM amounted to 5.8%.
In the case of `Cc1ccc(N2CC(N(C)C)C2)cc1C(=O)NC1(c2cccc3occc23)CC1` [Example C24], the IC50 was determined as 423 ± 61.4 nM and the inhibition at 1 µM came to 82.3%.
